Assays:
[1] = test system: mouse osteoblast line MC3T3; assay: Flow cytometric analysis of SB216763-treated osteoblasts with anti-CD31 and anti-VE-cadherin antibodies; assay type: cell-based
From the text: A high throughput screen was generated by modifying the mouse osteoblast line MC3T3. Fetal liver kinase 1 (Flk1) promoter-driven enhanced green fluorescent protein (eGFP) was introduced into these osteoblasts. […] Several libraries of small molecules, including a FDA-approved drug library, a UCLA in-house collection, and a custom set of compounds were screened. These libraries contained more than 22,000 small molecules ranging from natural products to synthesized compounds. […] Using arrange of dose (1-10 μM), it is shown that the reduction of the osteogenic markers Cbfa1, osterix and osteocalcin and the induction of the endothelial markers CD34, VE-cadherin, CD31 and eNOS occurred in a dose-dependent manner (FIG. 1, Part E). Osteoblasts were then treated with 10 μM SB216763 and examined the time-course expression of these osteogenic and endothelial markers. […] It was further determined the specificity of endothelial differentiation by closely examining other vascular lineage markers including smooth muscle cells (SMCs), pericytes, and fibroblasts by using real-time PCR. […] Because GSK3 is important in glucose metabolism, the expression of genes related to glucose metabolism was determined in the SB216763-treated osteoblasts, such as casein kinase 2, glucose transporter 4, and insulin receptor substrates 1 and 2. […]

[2] = test system: SMAD1 or β-catenin DNA-binding; assay: ChIP-seq of SMAD1 and β-catenin DNA-binding in treated osteoblasts; assay type: cell-based, mouse
Experimental: A chromatin immunoprecipitation was performed with massively parallel DNA sequencing (ChIP-seq) to examine potential alterations of SMAD1 or β-catenin DNA-binding in SB216763-treated osteoblasts.
For ChIP-seq, specific antibodies were used to enrich the genomic DNA as described before. ChIP DNA were sequenced by the Pathology Research Services at UCLA. Reads from each sample were mapped to the mouse genome using Bowtie2. Homer tool was used to detect significant enrichment of peaks with 5% false discovery rate and >4-fold over input. Motif occurrences in peaks were identified by the Homer motif discovery function. Peak annotation was performed to associate peaks with nearby genes and calculate tag densities. GO analysis and pathway enrichment of the identified genes were also performed. Specific antibodies for SMAD1 (Cell Signaling Technology, 9743) and β-catenin (R&D System, MAB2006) were used. The data were deposited in Gene Expression Omnibus (GEO) database with access number (GSE147374).

## Cn1cc(C2=C(c3ccc(Cl)cc3Cl)C(=O)NC2=O)c2ccccc21 [SB216763]
[1]
  treated osteoblasts expressing the endothelial markers CD31 and VE-cadherin: more than 85%
[2]; ChIP-seq
  genes with decreased DNA-binding of SMAD1 in the regulatory regions: 8214 genes
  genes with increased β-catenin DNA-binding in the regulatory regions: 1543 genes
[2]; overlap with 519 induced genes
  genes with an increase in expression and β-catenin DNA-binding: 84 genes
[2]; overlap with 827 suppressed genes
  genes with a decrease in both gene expression and SMAD1 DNA-binding: 649 genes

From US20230285357A1, “COMPOSITIONS AND METHODS FOR […] CELLS” (The Regents of the University of California, priority 2020, published 2023)
